Results as given in paper PMC6151437, “Antibacterial Synthetic Peptides Derived from Bovine Lactoferricin Exhibit Cytotoxic Effect against MDA-MB-468 and MDA-MB-231 Breast Cancer Cell Lines” (Molecules : A Journal of Synthetic Chemistry and Natural …, 2017).
Converted amounts (≈) assume the structure as drawn. Where two headings read alike, the source gives them in different places. Bridge positions count the residues as written; N and C are the ends. Square brackets hold non-standard residues; d marks the D form. Peptide text beside a SMILES is read from it. I, II: the chains in the order shown. Ahx = NCCCCCC(=O)O

Assays:
E. coli ATCC 25922 [1] = assay type: cell-based
Protocol: (§1) The minimal inhibitory concentration (MIC) was determined using a microdilution assay. In brief, bacterial strains were incubated for 18 to 24 h at 37 °C in an Muller Hinton broth (MHB) until an optical density of 0.15 to 0.30 (620 nm) was obtained. 90 µL of MHB was mixed with 90 µL of peptide (440 µg/mL), and using a 96-well microtiter plate peptide, serial dilution (200, 100, 50, 25, 12.5, and 6.2 µg/mL) was performed. 10 µL of inoculum (2 × 10^6 CFU/mL) was added to each well. Final volume in each well was 100 µL. Then they were incubated for 24 h at 37 °C, and the absorbance at 620 nm was measured using an Asys Expert Plus ELISA reader. For determining the minimum bactericidal concentration (MBC), a small sample was taken from each well using an inoculation loop, which was then spread on MHA plates and incubated overnight at 37 °C. […] Each of these tests was performed twice (n = 2).

E. coli ATCC 11775 [2] = assay type: cell-based
Protocol: as §1

[3] = test system: S. enteriditis ATCC 13076; set-up: method as in ref 15, 25, 26 = [15]; PMID 25815317; doi:10.1155/2015/453826; 15. León M.A. Leal A.L. Almanzar G. Rosas J.E. García J.E. Rivera Z.J. Antibacterial activity of synthetic peptides derived from Lactoferricin against Escherichia coli ATCC 25922 and Enterococcus faec || [25]; PMID 28613262; doi:10.3390/molecules22060987; 25. Huertas N.J. Monroy Z.J.R. Medina R.F. Castañeda J.E.G. Antimicrobial Activity of Truncated and Polyvalent Peptides Derived from the FKCRRWQWRMKKGLA Sequence against Escherichia coli ATCC 25922 an || [26]; PMID 28287494; doi:10.3390/molecules22030452; 26. Huertas Méndez N.J. Vargas Casanova Y. Gómez Chimbi A.K. Hernández E. Leal Castro A.L. Melo Diaz J.M. Rivera Monroy Z.J. García Castañeda J.E. Synthetic Peptides Derived from Bovine Lactoferricin; conditions: cited from earlier work
S. aureus ATCC 25923 = test system: S. aureus ATCC 25923; set-up: method as in ref 15, 25, 26 = [15]; PMID 25815317; doi:10.1155/2015/453826; 15. León M.A. Leal A.L. Almanzar G. Rosas J.E. García J.E. Rivera Z.J. Antibacterial activity of synthetic peptides derived from Lactoferricin against Escherichia coli ATCC 25922 and Enterococcus faec || [25]; PMID 28613262; doi:10.3390/molecules22060987; 25. Huertas N.J. Monroy Z.J.R. Medina R.F. Castañeda J.E.G. Antimicrobial Activity of Truncated and Polyvalent Peptides Derived from the FKCRRWQWRMKKGLA Sequence against Escherichia coli ATCC 25922 an || [26]; PMID 28287494; doi:10.3390/molecules22030452; 26. Huertas Méndez N.J. Vargas Casanova Y. Gómez Chimbi A.K. Hernández E. Leal Castro A.L. Melo Diaz J.M. Rivera Monroy Z.J. García Castañeda J.E. Synthetic Peptides Derived from Bovine Lactoferricin; conditions: cited from earlier work
E. coli ATCC 25922 [4] = test system: E. coli ATCC 25922; set-up: method as in ref 15, 25, 26 = [15]; PMID 25815317; doi:10.1155/2015/453826; 15. León M.A. Leal A.L. Almanzar G. Rosas J.E. García J.E. Rivera Z.J. Antibacterial activity of synthetic peptides derived from Lactoferricin against Escherichia coli ATCC 25922 and Enterococcus faec || [25]; PMID 28613262; doi:10.3390/molecules22060987; 25. Huertas N.J. Monroy Z.J.R. Medina R.F. Castañeda J.E.G. Antimicrobial Activity of Truncated and Polyvalent Peptides Derived from the FKCRRWQWRMKKGLA Sequence against Escherichia coli ATCC 25922 an || [26]; PMID 28287494; doi:10.3390/molecules22030452; 26. Huertas Méndez N.J. Vargas Casanova Y. Gómez Chimbi A.K. Hernández E. Leal Castro A.L. Melo Diaz J.M. Rivera Monroy Z.J. García Castañeda J.E. Synthetic Peptides Derived from Bovine Lactoferricin; conditions: cited from earlier work
E. coli ATCC 11775 [5] = test system: E. coli ATCC 11775; set-up: method as in ref 15, 25, 26 = [15]; PMID 25815317; doi:10.1155/2015/453826; 15. León M.A. Leal A.L. Almanzar G. Rosas J.E. García J.E. Rivera Z.J. Antibacterial activity of synthetic peptides derived from Lactoferricin against Escherichia coli ATCC 25922 and Enterococcus faec || [25]; PMID 28613262; doi:10.3390/molecules22060987; 25. Huertas N.J. Monroy Z.J.R. Medina R.F. Castañeda J.E.G. Antimicrobial Activity of Truncated and Polyvalent Peptides Derived from the FKCRRWQWRMKKGLA Sequence against Escherichia coli ATCC 25922 an || [26]; PMID 28287494; doi:10.3390/molecules22030452; 26. Huertas Méndez N.J. Vargas Casanova Y. Gómez Chimbi A.K. Hernández E. Leal Castro A.L. Melo Diaz J.M. Rivera Monroy Z.J. García Castañeda J.E. Synthetic Peptides Derived from Bovine Lactoferricin; conditions: cited from earlier work

N=C(N)NCCC[C@H](NC(=O)[C@H](Cc1c[nH]c2ccccc12)NC(=O)[C@H](CCC(N)=O)NC(=O)[C@H](Cc1c[nH]c2ccccc12)NC(=O)[C@H](CCCNC(=N)N)NC(=O)[C@@H](N)CCCNC(=N)N)C(=O)NCCCC[C@H](NC(=O)[C@H](CCCNC(=N)N)NC(=O)[C@H](Cc1c[nH]c2ccccc12)NC(=O)[C@H](CCC(N)=O)NC(=O)[C@H](Cc1c[nH]c2ccccc12)NC(=O)[C@H](CCCNC(=N)N)NC(=O)[C@@H](N)CCCNC(=N)N)C(=O)NCCCCCC(=O)N[C@@H](CSSC[C@H](NC(=O)CCCCCNC(=O)[C@H](CCCCNC(=O)[C@H](CCCNC(=N)N)NC(=O)[C@H](Cc1c[nH]c2ccccc12)NC(=O)[C@H](CCC(N)=O)NC(=O)[C@H](Cc1c[nH]c2ccccc12)NC(=O)[C@H](CCCNC(=N)N)NC(=O)[C@@H](N)CCCNC(=N)N)NC(=O)[C@H](CCCNC(=N)N)NC(=O)[C@H](Cc1c[nH]c2ccccc12)NC(=O)[C@H](CCC(N)=O)NC(=O)[C@H](Cc1c[nH]c2ccccc12)NC(=O)[C@H](CCCNC(=N)N)NC(=O)[C@@H](N)CCCNC(=N)N)C(N)=O)C(N)=O [LfcinB (20–25)4] (I: H-RRWQWRK[Ahx]C-NH2 / II: H-RRWQWRK[Ahx]C-NH2 / III: H-RRWQWR / IV: H-RRWQWR; amide I:7-III:C, II:7-IV:C; disulfide I:9-II:9)
Antibacterial Effect MBC (E. coli ATCC 25922 [1]; ATCC 25922): 22 µM | Antibacterial Effect MIC (E. coli ATCC 25922 [1]; ATCC 25922, 24 h): 22 µM | Antibacterial Effect MIC (E. coli ATCC 25922 [1]; E. coli ATCC 25922, microdilution in MHB, 24 h at 37 °C, absorbance 620 nm, n = 2): 100 µg/mL | Antibacterial Effect MBC (E. coli ATCC 25922 [1]; E. coli ATCC 25922, plated on MHA overnight at 37 °C, no bacterial growth, n = 2): 100 µg/mL | Antibacterial Effect MBC (E. coli ATCC 11775 [2]; ATCC 11775): 44 µM | Antibacterial Effect MIC (E. coli ATCC 11775 [2]; ATCC 11775, 24 h): 22 µM | Antibacterial Effect MIC (E. coli ATCC 11775 [2]; E. coli ATCC 11775, microdilution in MHB, 24 h at 37 °C, absorbance 620 nm, n = 2): 100 µg/mL | Antibacterial Effect MBC (E. coli ATCC 11775 [2]; E. coli ATCC 11775, plated on MHA overnight at 37 °C, no bacterial growth, n = 2): 200 µg/mL | MIC [3]: 44 µM (≈ 202 µg/mL) | MIC (S. aureus ATCC 25923): 25 µM (≈ 115 µg/mL) | MIC (E. coli ATCC 25922 [4]): 4.4 µM (≈ 20.2 µg/mL) | MIC (E. coli ATCC 11775 [5]): 5.5 µM (≈ 25.3 µg/mL)
